US5348941A, “Stabilizers for fibroblast growth factors” (Merck & Co., Inc., priority 1992, dated 1994)

Assays:
aFGF = biological target: T1, aFGF (Homo sapiens, UniProt P05230); assay: Thermal denaturation (Tm) of aFGF by fluorescence spectroscopy; assay type: biochemical; settings: for molar excess of ligand to aFGF required for 50% stabilization: FIG. 9; for Tm maximum of aFGF, fluorescence: saturating ligand, 100 μg/ml aFGF
T1 construct: The recombinant derived, 140 amino add form is the preferred form of aFGF; N-terminal methionine (MetHaFGF); made in house; host or cells: microbial cells (preferred embodiment)
T1 sequence (P05230 16-155 limits assumed): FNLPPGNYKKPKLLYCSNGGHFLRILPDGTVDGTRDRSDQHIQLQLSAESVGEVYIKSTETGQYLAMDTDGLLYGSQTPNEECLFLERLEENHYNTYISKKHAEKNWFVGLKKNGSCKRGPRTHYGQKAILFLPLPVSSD
Procedure: Fluorescence spectra are obtained with a Spex Fluorolog-2 spectrofiuorometer using a 1 mm pathlength cuvette. Band passes from 1-2 nm are employed with sample absorptivities maintained below 0.1 at 280 nm. The temperature is controlled either manually or automatically as described above. Reproducibility of thermal denaturation temperatures (Tm) is ± 2° C.
To more directly ascertain the effect of heparin on aFGF stability, the temperature-induced denaturation of aFGF as a function of heparin concentration was monitored by fluorescence spectroscopy. Fluorescence spectra were obtained with a Spex Fluorolog-2 spectrofiuorometer using a 1 mm pathlength cuvette. Band passes from 1-2 nm were employed with sample absorptivities maintained below 0.1 at 280 nm. The temperature was controlled either manually or automatically as described above. Reproducibility of thermal denaturation temperatures (Tm) was ±2° C. […] Experiments were carried out at 100 μg/ml protein (6.3 μM) in a PBS buffer at pH 7.2. Curve drawn through data points for clarity only.
Studies of the stabilization of aFGF by heparin are difficult to interpret because of the inherent heterogeneity of heparin preparations, Lane and Lindahl, Eds. Heparin, Chemical and Biological Properties, Clinical Applications, Edward Arnold, London (1989); Jackson, et al., Physiol. Rev. 71: 481-539 (1991). In order to better understand the polyanionic stabilization of aFGF, a series of well-defined fragments of heparin were examined for their ability to stabilize aFGF against thermal denaturation. These enzymatically prepared and purified fragments varied in size from a disaccharide to a decasaccharide. Each fragment was incubated with aFGF at a 1:1 weight ratio in a PBS buffer. The sample was then stressed by temperature and structural changes in aFGF were monitored by both circular dichroism and fluorescence spectroscopy. […] All samples contained 100 μg/ml aFGF (6.3 μM)in a PBS buffer (pH 7.2) with 100 μg/ml of each heparin fragment.
Since these fragments of heparin have a well-defined molecular weight, the molar ratio of aFGF to ligand during these thermal denaturation experiments can be calculated. The Tm of aFGF as a function of the molar concentration of the hexasaccharide was measured by fluorescence spectroscopy. Fluorescence spectra were obtained with a Spex Fluorolog-2 spectrofiuorometer using a 1mm pathlength cuvette. Band passes from 1-2 nm were employed with sample absorptivities maintained below 0.1 at 280 nm. The temperature was controlled either manually or automatically as described above. Reproducibility of thermal denaturation temperatures (Tm) was ±2° C.
Analogous to the heparin experiments illustrated in Example 1 (FIG. 3), aFGF thermal stability was monitored by fluorescence spectroscopy as a function of concentration for several other of the polyanions. […] All samples contained 100 μg/ml of aFGF (6.3 μM) in a PBS buffer at pH 7.2.

[1] = system: genetically diabetic C57GBL/Ks- db+/db^+ female mice; assay: In vivo wound healing model (single 2 cm^2 full thickness wound); design: species or system mouse; settings: with aFGF
Source text: The in vivo animal wound healing model employs genetically diabetic c57GBL/Ks- db+/db+ female mice. The assay follows that described by Marsella et al., Wounds: A Compendium of Clinical Research and Practice, 2, (4) July/August 1990, p. 135-147, except that a single 2 cm^2 full thickness wound is used instead of the two 6 mm biopsy wounds described by Marsella. Another difference is that the wounds are covered with a polyurethane dressing. Addic FGF is applied to wounds on days 0, 3 and 7. Matching placebo formulations are used in a second group of animals. Dressings are changed every three to four days, at which time wound perimeters are traced for assessment of healing. Comparison of healing rate va. a placebo control is made and evaluated for statistical significance at the 90% healed stage.
Human aFGF as described above was combined with various stabilizers to evaluate wound healing activity of the stabilized aFGF. The in vivo animal wound healing model employs genetically diabetic C57GBL/Ks- db+/db^+ female mice (Jackson Laboratory). The assay follows that described by Marsella et. al., Wounds: A Compendium of Clinical Research and Practice, 2, (4) July/August 1990, p. […] Comparison of healing rate vs. a placebo control is made and evaluated for statistical significance at the 90% healed stage. […]

[2] = system: BALB/c 3T3 A31 fibroblasts; assay: Fibroblast mitogenic assay ([3H]-thymidine incorporation into DNA); assay type: cell-based; settings: presence of heparin
plasma = assay: Anticoagulant activity: clotting time (PT / aPTT assay) relative to heparin; assay type: biochemical; settings: equal weight of heparin, no aFGF present
Procedure: Clotting times are monitored by either a one-stage plasma prothrombin time assay (PT assay) or an activated partial thromboplastin time assay (aPTT) using an automated optical detection system (coag-a-Mate®-XC) by General Diagnostics. Clotting times are measured in the presence of varying amounts of heparin (0-50 μg heparin/ml plasma) to generate a standard curve and dotting times of other compounds (at equal wt. amounts) are obtained relative to these standardized values.
^(c) Anticoagulant activity is expressed as a fraction of activity
observed with an equal weight of heparin (+ less than 1/10; ++ 1/10 to
1/2; +++ heparin). No aFGF is present during these measurements.
The anticoagulant properties of heparin are well established, so it was of interest to determine the relative anticoagulant properties of the ligands of this study. The anticoagulant effect of these molecules was measured using a dotting time assay (see methods). Clotting times were monitored by either a one-stage plasma prothrombin time assay (PT assay) or an activated partial thromboplastin time assay (aPTT) using an automated optical detection system (coag-a-Mate*-XC) by General Diagnostics. […]

| Compound | molar excess of ligand to aFGF required for 50% stabilization (aFGF; fluorescence) | Tm maximum of aFGF, fluorescence (aFGF; PBS pH 7.2) [°C] | wound healing efficacy [1] | mitogenic activity of aFGF [2] | thermal melting temperature (Tm) of aFGF, fluorescence (aFGF; 1/3X ligand by weight, PBS pH 7.2) [°C] | thermal melting temperature (Tm) of aFGF, fluorescence (aFGF; 3X ligand by weight, PBS pH 7.2) [°C] | concentration of heparin necessary to obtain one-half the Tm maximum (aFGF; fluorescence, PBS pH 7.2) | Anticoagulant Activity of Ligand (% Heparin by Wt) (plasma) |
| --- | --- | --- | --- | --- | --- | --- | --- | --- |
| O=P(O)(O)O[C@H]1[C@H](OP(=O)(O)O)[C@@H](OP(=O)(O)O)[C@H](OP(=O)(O)O)[C@@H](OP(=O)(O)O)[C@H]1OP(=O)(O)O [Inositol hexaphosphate, inositol hexaphosphate] | ~2 | 60 | – | – | – | – | – | – |
| O=S(=O)(O)OC1C(OS(=O)(=O)O)C(OS(=O)(=O)O)C(OS(=O)(=O)O)C(OS(=O)(=O)O)C1OS(=O)(=O)O (stereo not shown) [Inositol hexasulfate, inositol hexasulfate] | ~3.5 | 53 | as efficacious as heparin in stimulating | – | – | – | – | – |
| O=P(O)(O)OP(=O)(O)OP(=O)(O)OP(=O)(O)O [Tetrapolyphosphate] | approximately 6 | 50 | – | showed activity when assayed in the presence of heparin | – | – | – | – |
| heparin [reference compound] | – | 61 | – | – | 59 | 61 | 0.1 X (by weight) | + ++ |
| sulfated β-cyclodextrin | ~1.5 | 56 | as efficacious as heparin in stimulating | – | – | – | – | – |
